Assay results taken from patent US8518956B2, “1-(1-(2-ethoxyethyl)-3-ethyl-7-(4-methylpyridin-2-ylamino)-1H-pyrazolo[4,3-d]pyrimidin-5-yl) piperidine-4-carboxylic acid and salts thereof” (priority 2005, dated 2013).

Each compound was assayed against T1, PDE5 enzyme (Homo sapiens, UniProt O76074) (assay: Method 1: Human Platelet PDE5 Enzyme Inhibition Scintillation Proximity Assay). Conditions: METHOD 1: PDE5 IC50, Table B, WO2004096810 examples.
T1 construct: The PDE5 enzyme isolated from human platelets; from tissue; host or cells: human platelets
Format: biochemical
Excerpt: Method 1: Human Platelet PDE5 Enzyme Inhibition Scintillation Proximity Assay
An in vitro assay can be used to evaluate the inhibition of PDE5 enzyme activity by a test compound.
The PDE5 enzyme for use in the assay can be obtained from human platelets by appropriate modification of the method of Thompson, W J et al.; Biochemistry 18(23), 5228-5237, 1979, as described by Ballard S A et al.; J. Urology 159(6), 2164-2171, 1998. The PDE5 enzyme isolated from human platelets can be used to catalyze the hydrolysis of [^3H]cGMP (Amersham Biosciences) to 5′ nucleotide [^3H]GMP. The [^3H]GMP binds to yttrium silicate SPA beads (Amersham Biosciences) and is detected by scintillation counting. More specifically, the effect of the test compound at different concentrations can be evaluated in the assay by contacting the compound with a fixed amount of PDE5 enzyme in the presence of substrate (cGMP or cAMP in a 3:1 ratio unlabelled to [^3H]-labeled). Scintillation counting can be used as described above to determine relative PDE5 enzyme activity. The inhibition of PDE5 enzyme activity is then calculated relative to total PDE5 enzyme activity of uninhibited controls.
PDE5 IC50 Assay: 96-well microtiter plate format
• Buffer A: 20 mM Tris-HCl, 5 mM MgCl2, pH 7.4 • Buffer B: 2 mg/ml BSA in Buffer A (enzyme buffer) • cGMP substrate: Final concentration of 500 nM in assay The amount of ^3H-labeled substrate added depends upon the specific activity of [^3H]cGMP, and the cGMP substrate is diluted with a 10 mM stock of cold cGMP in Buffer A for a final substrate concentration of 500 nM in the assay. • PDE enzyme: Prepared in Buffer B. The dilution factor is determined by enzyme activity. • SPA beads: 20 mg/ml suspension prepared in dH2O.
Stocks of standard and test compounds are prepared at 5 mM in 100% DMSO. The compound is serially diluted in a dilution plate using a 10-point ½ log dilution format. 2 μl of the compound dilution is added in duplicate to the wells of the assay plate. 2 μl of 100% DMSO are added to designated control wells. 25 μl of Buffer A are added to all wells. 25 μl of Buffer B are added to the negative control wells. 25 μl of enzyme are added to the remaining wells. 50 μl of substrate are added to each well. Plates are sealed and incubated for 60 minutes on a plate shaker at 30 C. 50 plof SPA beads are added to stop the reaction. The plates are again sealed and shaken for 15 minutes to allow the beads to bind the GMP product. The beads are allowed to settle for 30 minutes and then read on a NXT TopCount scintillation counter. Data are analyzed with a curve fitting application for plate-based screening. Percent inhibition in this assay is calculated as follows: Inhibition (%)=[(mean maximum−compound value/(mean maximum−mean minimum)]×100.
The IC50 value is determined from sigmoid dose-response curves of enzyme activity versus compound concentration.
`CCOCCn1nc(C)c2nc(N(C)CCOC)nc(Nc3ccc(=O)n(C)c3)c21` [WO2004096810 Example 202] was tested, and the IC50 was 5.46 nM. `CCOCCn1nc(C)c2nc(N(C)CC)nc(Nc3ccc(=O)n(C)c3)c21` [WO2004096810 Example 203] gave an IC50 of 0.63 nM. `CCOCCn1nc(C)c2nc(N3CC(NC)C3)nc(Nc3cc(C)ccn3)c21` [WO2004096810 Example 204] showed an IC50 of 24.1 nM. `CCOCCn1nc(C)c2nc(N3CC(N(C)C)C3)nc(Nc3cc(C)ccn3)c21` [WO2004096810 Example 205] gave an IC50 of 6.24 nM. `CCOCCn1nc(C)c2nc(N3C[C@@H]4C[C@H]3CN4C)nc(Nc3cc(C)ccn3)c21` [WO2004096810 Example 206] was tested, and the IC50 was 6.09 nM. Work on `CCOCCn1nc(C)c2nc(N(C)CCOC)nc(Nc3cc(C)ccn3)c21` [WO2004096810 Example 207] yielded an IC50 of 1.55 nM. For `CCOCCn1nc(C)c2nc(N(C)CCO)nc(Nc3cc(C)ccn3)c21` [WO2004096810 Example 208], the IC50 was 0.71 nM. For `CCOCCn1nc(C)c2nc(N3C[C@@H]4C[C@H]3CN4C)nc(Nc3ccncn3)c21` [WO2004096810 Example 210], the IC50 was 82.7 nM. `CCOCCn1nc(COC)c2nc(N3CCN[C@H](C)C3)nc(Nc3cccc(C)n3)c21` [WO2004096810 Example 211] gave an IC50 of 1.57 nM. `CCOCCn1nc(COC)c2nc(N(C)CC)nc(Nc3cc(C)ccn3)c21` [WO2004096810 Example 212] gave an IC50 of 0.13 nM. `CCOCCn1nc(COC)c2nc(N3CCC[C@H]3CO)nc(Nc3cc(C)ccn3)c21` [WO2004096810 Example 213] was tested, and the IC50 was 0.42 nM. `CCOCCn1nc(COC)c2nc(N(C)C3CCN(C)CC3)nc(Nc3cc(C)ccn3)c21` [WO2004096810 Example 214] gave an IC50 of 0.37 nM. `CCOCCn1nc(COC)c2nc(N3CC(N(C)C)C3)nc(Nc3cc(C)ccn3)c21` [WO2004096810 Example 215] gave an IC50 of 5.3 nM. Compound `CCOCCn1nc(C)c2nc(N(C)CCN(C)C)nc(Nc3ccncn3)c21` [WO2004096810 Example 216] has an IC50 of 60.9 nM. `CCOCCn1nc(C)c2nc(N(C)CC)nc(Nc3ccncn3)c21` [WO2004096810 Example 217] showed an IC50 of 2.55 nM. In the case of `CCOCCn1nc(C)c2nc(N(C)CC)nc(Nc3ccnc(C)n3)c21` [WO2004096810 Example 218], the IC50 is reported as 11.5 nM. Work on `CCOCCn1nc(C)c2nc(N(C)CCOC)nc(Nc3ccnc(C)n3)c21` [WO2004096810 Example 219] yielded an IC50 of 41 nM. Compound `CCOCCn1nc(C)c2nc(N3CCN[C@H](C)C3)nc(Nc3ccnc(C)n3)c21` [WO2004096810 Example 220] has an IC50 of 3.6 nM. Work on `CCOCCn1nc(C)c2nc(N3CCN[C@H](C)C3)nc(Nc3nccc(C)n3)c21` [WO2004096810 Example 221] yielded an IC50 of 35.4 nM. In the case of `CCOCCn1nc(C)c2nc(N3CCN[C@H](C)C3)nc(Nc3cc(C(F)(F)F)ccn3)c21` [WO2004096810 Example 222], the IC50 is reported as 10.1 nM. With `CCOCCn1nc(COC)c2nc(N(C)CC)nc(Nc3ccncn3)c21` [WO2004096810 Example 225] the IC50 was 1.33 nM. `CCOCCn1nc(COC)c2nc(N(C)CCOC)nc(Nc3cc(C)ccn3)c21` [WO2004096810 Example 226] showed an IC50 of 0.83 nM. `CCOCCn1nc(COC)c2nc(N(C)CCO)nc(Nc3cc(C)ccn3)c21` [WO2004096810 Example 227] gave an IC50 of 0.35 nM. `CCOCCn1nc(CO)c2nc(N(C)CC)nc(Nc3ccncn3)c21` [WO2004096810 Example 228] gave an IC50 of 3.09 nM. Work on `CCOCCn1nc(CO)c2nc(N3C[C@@H]4C[C@H]3CN4)nc(Nc3cc(C)ccn3)c21` [WO2004096810 Example 229] yielded an IC50 of 1.61 nM. Work on `Cc1ccnc(Nc2nc(N3C[C@@H]4C[C@H]3CN4)nc3c(C)nn(CCOCC(F)(F)F)c23)c1` [WO2004096810 Example 231] yielded an IC50 of 10.3 nM. With `CCOCCn1nc(C)c2nc(N3C[C@@H]4C[C@H]3CN4)nc(Nc3cnc(C)c(C)c3)c21` [WO2004096810 Example 233] the IC50 was 3.85 nM. `CCOCCn1nc(C)c2nc(N3C[C@@H]4C[C@H]3CN4)nc(Nc3cc(C)cc(C)n3)c21` [WO2004096810 Example 234] showed an IC50 of 8.79 nM. For `CCOCCn1nc(C)c2nc(N3C[C@@H]4C[C@H]3CN4)nc(Nc3cccc(C)n3)c21` [WO2004096810 Example 235], the IC50 was over 100 nM. Work on `CCOCCn1nc(C)c2nc(N3C[C@@H]4C[C@H]3CN4)nc(Nc3cc(C)ccn3)c21` [WO2004096810 Example 236] yielded an IC50 of 2.51 nM. Compound `CCOCCn1nc(C)c2nc(N3CC4CCC3CN4)nc(Nc3cc(C)ccn3)c21` (stereo not shown) [WO2004096810 Example 237] has an IC50 of 0.67 nM. Compound `CCOCCn1nc(C)c2nc(N3C[C@@H]4C[C@H]3CN4)nc(Nc3ccc(C)cn3)c21` [WO2004096810 Example 240] has an IC50 of over 100 nM. Work on `CCOCCn1nc(C)c2nc(N3C[C@@H]4C[C@H]3CN4)nc(Nc3ccncn3)c21` [WO2004096810 Example 241] yielded an IC50 of 48.7 nM. For `CCOCCn1nc(COC)c2nc(N3CC4CCC(C3)N4)nc(Nc3cc(C)ccn3)c21` [WO2004096810 Example 242], the IC50 was 0.62 nM. In the case of `CCOCCn1nc(C)c2nc(N3CC4C[C@@H]3CN4)nc(Nc3cc(C)ccn3)c21` [WO2004096810 Example 244], the IC50 is reported as 2.54 nM. With `Cc1ccnc(Nc2nc(N(C)[C@H]3CCN(C)C3)nc3c(C)nn(CCOCC(F)(F)F)c23)c1` [WO2004096810 Example 245] the IC50 was 1.55 nM. For `CCc1nn(CCOC)c2c(Nc3cc(C)ccn3)nc(NC)nc12` [compound 1], the IC50 was 16.2 nM. For `CCOCCn1nc(CC)c2nc(N(C)C3CCN(C)CC3)nc(Nc3ccncn3)c21` [compound 2], the IC50 was 0.48 nM.

These compounds were tested against PDE6 enzyme (assay: not given). Conditions: read-out: METHOD 2: PDE6 IC50; Table F, WO2004096810 examples.
Excerpt: Method 2: Human Retina PDE6 Enzyme Inhibition Scintillation Proximity Assay (SPA)
The inhibition of PDE6 enzyme activity by a test compound can be measured in accordance with the in vitro assay of Method 1, but instead using semi-purified PDE6 enzyme isolated from human, bovine or canine retina in place of PDE5 enzyme. […] [3H]GMP binds to yttrium silicate SPA beads and is detected by scintillation counting. • PDE6 Purification: PDE6 can be isolated and purified from the following: Soluble rod PDE6/Rod Outer Segment PDE6 from Bovine eyes (Charles River Ltd, France); Cone PDE6 from Canine eyes (LAS); or Soluble rod and Cone PDE6 from Human eyes (I.I.A.M.).
While supporting the eye with the cornea uppermost, make a small incision through the conjunctiva below the level of the iris. The incision should be sufficient to allow the humor to escape through the cut. Using fine scissors, cut around the cornea to enable it to be lifted off as a flap. Using a small hook, engage the lens and gently pull it out of orbit, taking care not to pull out the retina at the same time. Allow the retina to drop down of its own accord to the base of the orbit.
Lift the retina with care and locate the optic nerve. Cut through the optic nerve and transfer the retina to a small dish containing a few ml of homogenisation buffer. Gently float the retina out on the surface of the buffer and remove any obvious pigmented material from the iris. Place the retina in a second dish with clean buffer to remove last traces of pigment and then transfer to a 50 ml Corning Costar centrifuge tube (Sigma) and keep on ice. • PDE6 Isolation and Purification from Retina: Allow 2 mls of the homogenisation buffer per bovine retina and 1 ml per retina for dog and human. Homogenise using hand-held homogeniser 3×5 second bursts cooling on ice between each burst. Filter homogenate through two layers of surgical gauze. Spin at 100,000 g for 60 minutes at 4° C. […] Run through FPLC (Pharmacia FPLC LKB/FRAC-100, Pharmacia) or aliquot and store in liquid nitrogen as needed. Method 2A: Alternative Human Retina PDE6 Enzyme Inhibition Scintillation Proximity Assay (SPA)
For `Cc1ccnc(Nc2nc(N(C)[C@H]3CCN(C)C3)nc3c(C)nn(CCOCC(F)(F)F)c23)c1` [WO2004096810 Example 245], the IC50 was 250 nM.

What follows are compounds tested against T2, PDE11 enzyme (Homo sapiens, UniProt Q9HCR9, DUP921-921) (assay: Method 3: Human Recombinant PDE11 Enzyme Inhibition Scintillation Proximity Assay (SPA)). Conditions: Table F, WO2004096810 examples; read-out: METHOD 3: PDE11 IC50.
T2 construct: FLAG (N); made in house; host or cells: Sf9 insect cells (baculovirus, pFastBac)
T2 sequence (Q9HCR9 with tags, fused parts or gaps DUP921-921 limits assumed): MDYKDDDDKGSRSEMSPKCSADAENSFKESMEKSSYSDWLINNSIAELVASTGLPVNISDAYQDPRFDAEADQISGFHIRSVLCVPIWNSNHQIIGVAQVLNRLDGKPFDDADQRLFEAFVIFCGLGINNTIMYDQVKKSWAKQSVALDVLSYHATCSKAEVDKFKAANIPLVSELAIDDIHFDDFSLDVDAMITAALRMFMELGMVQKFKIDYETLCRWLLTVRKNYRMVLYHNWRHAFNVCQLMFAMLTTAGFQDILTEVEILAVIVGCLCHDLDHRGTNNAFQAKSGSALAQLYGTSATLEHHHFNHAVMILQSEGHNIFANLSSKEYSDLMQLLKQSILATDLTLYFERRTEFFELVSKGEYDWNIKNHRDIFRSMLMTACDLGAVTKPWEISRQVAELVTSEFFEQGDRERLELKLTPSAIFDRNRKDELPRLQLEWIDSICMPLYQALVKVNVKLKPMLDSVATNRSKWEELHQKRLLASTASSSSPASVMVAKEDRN
Format: biochemical
Protocol: Method 3: Human Recombinant PDE11 Enzyme Inhibition Scintillation Proximity Assay (SPA)
PDE11 Expression and Purification:
Incubate at 27° C. with 220 rpm shaking for 48 hours. Harvest the infected cells by pelleting at 2000 rpm for 10 minutes at 4° C. Store the infected cell pellet at −80° C. until ready for purification. Resuspend the thawed cell pellets to 1×10^7 cells/ml (=20 ml buffer consisting of 20 mM Hepes (pH7.2), 1 mM EDTA, 20 mM sucrose, 150 mM NaCl and protease inhibitor tablets). Mix thoroughly and allow to stand on ice for 10 minutes. Sonicate for 5×5 seconds, on ice. Spin the mixture at 12,000 rpm for 10 minutes at 4° C. in SS34. Store the insoluble pellet at −80° C., and proceed to the purification of the soluble material. • (b) Purification: Prepare the column (1.0 cm diameter, Kontes) by rinsing the empty column twice with TBS. Then mix beads (Anti-FLAG M2 Agarose, Sigma) with TBS and add to the column—allow the beads to settle. Wash the column with 3 column volumes of 0.1M glycine (pH3.5). […] Apply the extract to the column and allow the extract to enter by gravity flow. Reapply the flow-through. Wash the column with 15 column volumes of TBS. Elute the protein with 5×1 ml aliquots of FLAG peptide (Sigma) (i.e., 100 ug/ml in TBS). Elute the remaining protein with 1 ml 0.1M glycine, and immediately add 25 ul 1M Tris pH8 to neutralize. Method 3A: Alternative Human Recombinant PDE11 Enzyme Inhibition Scintillation Proximity Assay (SPA)
With `Cc1ccnc(Nc2nc(N(C)[C@H]3CCN(C)C3)nc3c(C)nn(CCOCC(F)(F)F)c23)c1` [WO2004096810 Example 245] the IC50 was 390 nM.
